# Legend:
# [1] = Repeated-dose study in SHPT, stage 3 or 4 CKD, vitamin D insufficiency: serum total 25-hydroxyvitamin D; assay type: in vivo, human; details: target of 30 ng/mL; end of second month of treatment (EAP2)
# Experimental: (§1) A study is carried out with repeated-dosing of ERC (Rayaldee® (calcifediol) extended-release capsules), IR calcifediol (“IRC”), high-dose cholecalciferol (“HDC”), and paricalcitol plus low-dose cholecalciferol (“PLDC”) in adult patients with secondary hyperparathyroidism (SHPT), stage 3 or 4 chronic kidney disease (CKD) and vitamin D insufficiency.
# (§2) This is an open-label study to gather comparative data evaluating the ERC, IR calcifediol, high-dose cholecalciferol, and paricalcitol plus low-dose cholecalciferol. Eligible subjects were randomized 1:1:1:1 to receive 8 weeks of treatment with one of the listed study medications with a sufficient quantity of a non-alcoholic beverage to enable swallowing of the capsules: • 1) ERC capsules 60 μg once daily at bedtime, except on Days 1 and 29 when dosing occurred in the morning before breakfast in the phase 1 unit; • 2) IR calcifediol 266 μg before breakfast on the mornings of Day 1 and Day 29 in the phase 1 unit; • 3) cholecalciferol 300,000 IU (high-dose) before breakfast on the mornings of Day 1 and Day 29 in the phase 1 unit; and • 4) paricalcitol 1 μg (possibly increasing to 2 μg per day at Day 29) plus cholecalciferol 800 IU (low-dose) once daily in the morning before breakfast, except on the mornings of Days 1 and 29 when dosing occurred before breakfast in the phase 1 unit. […]
# Plasma iPTH = assay: Repeated-dose study (Example 3): plasma iPTH-lowering response; assay type: in vivo, human; details: EAP2
# Experimental: as §1, §2
# [2] = Stability of calcifediol in acidic dissolution media (Example 4); assay type: physicochemical; details: pH 1.2 medium, 37° C., after 6 hours
# Experimental: The stability of calcifediol was tested in acidic dissolution media at ambient/light conditions and also in dark conditions, at 37° C., 20° C., and 10° C., using 30 μg calcifediol extended release capsules.
degradation [2],Structure (SMILES),serum total 25-hydroxyvitamin D response rate [1],plasma iPTH response rate (Plasma iPTH; response = ≥20% reduction from pre-treatment baseline),plasma iPTH response rate (Plasma iPTH; response = ≥30% reduction from pre-treatment baseline)
–,"C=C1CC[C@H](O)C/C1=C/C=C1\CCC[C@]2(C)[C@@H]([C@H](C)CCCC(C)C)CC[C@@H]12 [HDC, cholecalciferol]",44%,37.5%,25.0%
about 90%,C=C1CC[C@H](O)C/C1=C/C=C1\CCC[C@]2(C)[C@@H]([C@H](C)CCCC(C)(C)O)CC[C@@H]12 [calcifediol],–,–,–

# Source: patent publication US20230330110A1, “HARD CAPSULE DOSAGE FORM AND USES THEREOF” (EIRGEN PHARMA LTD., priority 2020, published 2023)
